The values below come from ChEMBL document CHEMBL5058646 (2022).

Test [1] has as its target 5-hydroxytryptamine receptor 3A (Homo sapiens) (UniProt P46098). To be noted: Compound concentration 10.0 uM.
The target in test [2] is Zinc finger and BTB domain-containing protein 14 (Homo sapiens) (UniProt O43829). To be noted: SUD4, Compound concentration 1.0 uM.
The target of test [3] is Sodium-dependent noradrenaline transporter (Homo sapiens) (UniProt P23975). The conditions noted are these: Compound concentration 10.0 uM.
The target in test [4] is T1, Zinc finger and BTB domain-containing protein 1 (Homo sapiens) (UniProt Q9Y2K1).
T1 sequence (whole entry): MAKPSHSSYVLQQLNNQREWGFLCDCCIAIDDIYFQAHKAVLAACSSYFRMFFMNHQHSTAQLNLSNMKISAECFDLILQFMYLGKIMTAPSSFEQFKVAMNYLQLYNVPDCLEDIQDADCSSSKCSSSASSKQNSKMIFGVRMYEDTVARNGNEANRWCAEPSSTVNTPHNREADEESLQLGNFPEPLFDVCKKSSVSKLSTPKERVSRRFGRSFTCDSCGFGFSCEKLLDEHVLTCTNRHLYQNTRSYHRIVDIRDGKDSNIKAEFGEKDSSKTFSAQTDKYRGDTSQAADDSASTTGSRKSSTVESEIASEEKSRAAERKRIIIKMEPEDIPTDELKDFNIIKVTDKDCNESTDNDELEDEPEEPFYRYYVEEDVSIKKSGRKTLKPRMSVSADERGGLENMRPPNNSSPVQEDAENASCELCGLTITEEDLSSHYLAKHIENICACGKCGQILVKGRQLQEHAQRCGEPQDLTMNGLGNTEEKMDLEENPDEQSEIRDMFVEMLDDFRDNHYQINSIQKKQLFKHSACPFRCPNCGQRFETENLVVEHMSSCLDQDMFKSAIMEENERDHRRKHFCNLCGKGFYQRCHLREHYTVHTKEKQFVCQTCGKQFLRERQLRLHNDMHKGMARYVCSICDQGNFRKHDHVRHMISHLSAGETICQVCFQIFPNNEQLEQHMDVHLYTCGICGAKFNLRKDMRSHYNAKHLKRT
To be noted: SUD4, Compound concentration 1.0 uM.

For test [5], the target named is 5-hydroxytryptamine receptor 1D (Homo sapiens, UniProt P28221). In words: GPCRScan assay: inhibition of 5-HT1D. Also on record: radioligand conc. used [nm] 1.0 – 2.0, parental cells HEKT.
5-hydroxytryptamine receptor 1D, sequence (P28221 whole entry, the tested form may be a part): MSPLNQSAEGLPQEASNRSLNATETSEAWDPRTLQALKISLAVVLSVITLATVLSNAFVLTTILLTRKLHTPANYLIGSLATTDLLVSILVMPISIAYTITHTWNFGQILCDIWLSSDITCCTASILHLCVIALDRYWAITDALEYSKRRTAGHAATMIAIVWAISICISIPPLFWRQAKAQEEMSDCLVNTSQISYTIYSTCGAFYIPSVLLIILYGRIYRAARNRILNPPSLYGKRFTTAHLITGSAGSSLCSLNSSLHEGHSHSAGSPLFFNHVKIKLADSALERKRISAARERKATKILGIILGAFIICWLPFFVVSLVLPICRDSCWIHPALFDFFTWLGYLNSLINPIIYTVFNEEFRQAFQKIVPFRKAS
The target of test [6] is T1, Zinc finger and BTB domain-containing protein 1 (Homo sapiens). To be noted: SUD4, Compound concentration 1.0 uM. The source holds these as a separate data set.
The target of test [7] is Mitogen-activated protein kinase 14 (Homo sapiens) (UniProt Q16539). Put plainly: MAPK14 SGC Tm panel (DSF). To be noted: Compound concentration 20.0 uM.
Mitogen-activated protein kinase 14 (Homo sapiens), sequence (Q16539 whole entry): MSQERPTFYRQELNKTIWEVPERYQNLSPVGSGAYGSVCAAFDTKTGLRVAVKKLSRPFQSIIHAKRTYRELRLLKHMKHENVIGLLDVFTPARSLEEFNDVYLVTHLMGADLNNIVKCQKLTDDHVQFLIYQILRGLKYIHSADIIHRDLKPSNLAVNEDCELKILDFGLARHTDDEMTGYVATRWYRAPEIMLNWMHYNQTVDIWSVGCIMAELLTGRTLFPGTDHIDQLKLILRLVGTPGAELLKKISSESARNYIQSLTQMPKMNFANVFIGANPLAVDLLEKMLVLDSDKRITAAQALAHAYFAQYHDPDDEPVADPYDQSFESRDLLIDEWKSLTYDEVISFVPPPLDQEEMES
For test [8], the target named is Serine/threonine-protein kinase PAK 4 (Homo sapiens) (UniProt O96013). Put plainly: PAK4 SGC Tm panel (DSF). The conditions noted are these: Compound concentration 20.0 uM.
Serine/threonine-protein kinase PAK 4 (Homo sapiens), sequence (O96013 whole entry, looked up): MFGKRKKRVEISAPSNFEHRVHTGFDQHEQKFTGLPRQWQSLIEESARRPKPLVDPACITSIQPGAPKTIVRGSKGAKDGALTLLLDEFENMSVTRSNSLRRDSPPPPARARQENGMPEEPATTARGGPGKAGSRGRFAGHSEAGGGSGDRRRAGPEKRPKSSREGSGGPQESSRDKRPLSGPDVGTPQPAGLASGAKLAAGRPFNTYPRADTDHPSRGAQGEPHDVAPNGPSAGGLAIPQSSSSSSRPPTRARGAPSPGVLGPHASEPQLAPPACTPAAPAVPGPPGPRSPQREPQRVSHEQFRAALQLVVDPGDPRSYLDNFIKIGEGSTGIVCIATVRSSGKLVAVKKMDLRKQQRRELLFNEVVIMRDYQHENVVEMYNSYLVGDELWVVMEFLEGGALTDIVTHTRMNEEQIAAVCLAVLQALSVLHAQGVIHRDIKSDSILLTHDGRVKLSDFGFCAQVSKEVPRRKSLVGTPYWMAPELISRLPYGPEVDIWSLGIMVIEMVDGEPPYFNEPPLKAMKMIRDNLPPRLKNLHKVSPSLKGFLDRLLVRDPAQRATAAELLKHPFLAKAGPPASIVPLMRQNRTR
Test [9] has as its target Transcription regulator protein BACH2 (Homo sapiens) (UniProt Q9BYV9). To be noted: SUD4, Compound concentration 1.0 uM.
The target in test [10] is Proto-oncogene tyrosine-protein kinase Src (Homo sapiens) (UniProt P12931). Put plainly: SRC SGC Tm panel (DSF). To be noted: Compound concentration 20.0 uM.
Proto-oncogene tyrosine-protein kinase Src (Homo sapiens), sequence (P12931 2-536 limits assumed): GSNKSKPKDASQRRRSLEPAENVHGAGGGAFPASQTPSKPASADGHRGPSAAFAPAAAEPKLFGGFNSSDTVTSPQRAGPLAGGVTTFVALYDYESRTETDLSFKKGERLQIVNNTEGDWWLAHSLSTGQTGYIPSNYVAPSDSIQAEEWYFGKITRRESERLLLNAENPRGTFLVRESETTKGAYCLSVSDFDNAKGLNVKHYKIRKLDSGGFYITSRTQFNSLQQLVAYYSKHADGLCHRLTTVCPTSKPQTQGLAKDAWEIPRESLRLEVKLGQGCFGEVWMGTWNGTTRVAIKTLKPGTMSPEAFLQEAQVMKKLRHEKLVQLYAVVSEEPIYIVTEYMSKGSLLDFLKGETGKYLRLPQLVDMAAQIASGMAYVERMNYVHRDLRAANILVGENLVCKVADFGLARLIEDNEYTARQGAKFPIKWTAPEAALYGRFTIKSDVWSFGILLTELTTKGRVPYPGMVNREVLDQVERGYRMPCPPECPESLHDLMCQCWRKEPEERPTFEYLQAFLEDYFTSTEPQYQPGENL
Test [11] deals with Serine/threonine-protein kinase ULK3 (Homo sapiens) (UniProt Q6PHR2). Put plainly: ULK3 SGC Tm panel (DSF). To be noted: Compound concentration 20.0 uM.
Serine/threonine-protein kinase ULK3 (Homo sapiens), sequence (Q6PHR2 whole entry): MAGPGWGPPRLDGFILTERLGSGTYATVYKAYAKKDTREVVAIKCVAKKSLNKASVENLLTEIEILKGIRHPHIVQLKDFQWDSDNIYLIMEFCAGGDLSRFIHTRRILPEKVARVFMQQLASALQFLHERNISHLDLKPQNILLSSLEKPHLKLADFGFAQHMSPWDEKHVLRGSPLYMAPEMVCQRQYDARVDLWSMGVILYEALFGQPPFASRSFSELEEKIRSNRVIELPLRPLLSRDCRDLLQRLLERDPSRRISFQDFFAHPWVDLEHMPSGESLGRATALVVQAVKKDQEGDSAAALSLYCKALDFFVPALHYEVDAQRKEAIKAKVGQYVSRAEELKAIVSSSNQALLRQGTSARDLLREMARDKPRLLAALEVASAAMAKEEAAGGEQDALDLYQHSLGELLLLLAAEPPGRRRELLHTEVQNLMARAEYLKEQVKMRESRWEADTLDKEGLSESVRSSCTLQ
For test [12], the target named is Mu-type opioid receptor (Homo sapiens, UniProt P35372). In words: GPCRScan assay: inhibition of MOR. Further details: radioligand conc. used [nm] 1.0 – 2.0, parental cells stable HEK.
Mu-type opioid receptor, sequence (P35372 whole entry, the tested form may be a part): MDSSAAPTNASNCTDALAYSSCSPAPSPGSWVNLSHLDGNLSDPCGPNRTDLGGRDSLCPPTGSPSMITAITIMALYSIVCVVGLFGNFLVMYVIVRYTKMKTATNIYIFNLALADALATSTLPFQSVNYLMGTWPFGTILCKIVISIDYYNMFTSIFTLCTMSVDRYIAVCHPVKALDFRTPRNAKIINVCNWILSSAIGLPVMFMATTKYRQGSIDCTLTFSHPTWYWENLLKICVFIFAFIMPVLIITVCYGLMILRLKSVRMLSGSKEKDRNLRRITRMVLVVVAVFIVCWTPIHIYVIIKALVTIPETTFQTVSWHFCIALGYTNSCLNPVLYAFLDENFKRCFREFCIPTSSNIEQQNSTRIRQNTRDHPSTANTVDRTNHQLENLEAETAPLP
Test [13] deals with T2, Zinc finger and BTB domain-containing protein 10 (Homo sapiens) (UniProt Q96DT7).
T2 sequence (whole entry): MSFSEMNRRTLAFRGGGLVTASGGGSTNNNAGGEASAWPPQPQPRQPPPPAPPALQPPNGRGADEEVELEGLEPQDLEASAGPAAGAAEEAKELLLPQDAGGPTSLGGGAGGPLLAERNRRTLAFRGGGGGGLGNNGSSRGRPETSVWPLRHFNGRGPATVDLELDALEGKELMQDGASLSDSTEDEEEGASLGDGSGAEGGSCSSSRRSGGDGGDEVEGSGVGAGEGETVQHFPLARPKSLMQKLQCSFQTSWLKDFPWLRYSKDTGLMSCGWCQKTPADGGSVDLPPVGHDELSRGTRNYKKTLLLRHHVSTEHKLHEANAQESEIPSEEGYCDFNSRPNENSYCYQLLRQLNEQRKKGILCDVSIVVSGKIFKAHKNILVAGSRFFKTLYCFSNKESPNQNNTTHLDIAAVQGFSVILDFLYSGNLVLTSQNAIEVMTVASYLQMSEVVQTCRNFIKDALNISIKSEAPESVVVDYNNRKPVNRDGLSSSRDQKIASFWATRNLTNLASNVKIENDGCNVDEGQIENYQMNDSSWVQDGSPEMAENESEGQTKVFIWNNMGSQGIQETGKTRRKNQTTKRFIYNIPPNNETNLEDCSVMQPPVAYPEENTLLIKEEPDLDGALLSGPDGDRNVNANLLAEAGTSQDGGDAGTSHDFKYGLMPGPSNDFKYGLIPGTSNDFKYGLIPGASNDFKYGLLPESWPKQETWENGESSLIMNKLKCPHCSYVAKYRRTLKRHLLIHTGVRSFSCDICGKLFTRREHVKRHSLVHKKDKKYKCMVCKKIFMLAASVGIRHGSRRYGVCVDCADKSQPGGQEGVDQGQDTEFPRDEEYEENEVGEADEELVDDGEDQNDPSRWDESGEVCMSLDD
The conditions noted are these: SUD4, Compound concentration 1.0 uM.

In test [14] the target is T3, Telomere zinc finger-associated protein (Homo sapiens) (UniProt P10074).
T3 sequence (whole entry): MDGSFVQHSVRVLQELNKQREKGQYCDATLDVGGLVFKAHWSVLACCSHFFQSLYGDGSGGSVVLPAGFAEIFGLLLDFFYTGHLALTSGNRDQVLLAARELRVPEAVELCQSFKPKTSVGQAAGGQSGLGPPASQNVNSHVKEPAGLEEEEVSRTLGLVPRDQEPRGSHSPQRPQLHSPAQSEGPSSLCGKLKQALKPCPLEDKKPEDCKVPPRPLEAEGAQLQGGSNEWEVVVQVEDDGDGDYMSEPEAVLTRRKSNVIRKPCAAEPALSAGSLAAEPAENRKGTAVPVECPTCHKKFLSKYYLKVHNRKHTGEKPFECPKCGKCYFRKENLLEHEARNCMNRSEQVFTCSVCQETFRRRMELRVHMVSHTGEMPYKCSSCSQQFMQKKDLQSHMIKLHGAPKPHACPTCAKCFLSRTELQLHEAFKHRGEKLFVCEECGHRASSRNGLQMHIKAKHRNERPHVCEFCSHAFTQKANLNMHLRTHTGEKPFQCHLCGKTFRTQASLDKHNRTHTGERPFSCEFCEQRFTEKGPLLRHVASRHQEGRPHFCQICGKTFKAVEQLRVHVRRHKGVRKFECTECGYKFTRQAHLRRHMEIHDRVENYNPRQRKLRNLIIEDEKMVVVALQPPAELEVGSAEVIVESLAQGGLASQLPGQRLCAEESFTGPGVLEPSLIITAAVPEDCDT
The conditions noted are these: SUD4, Compound concentration 1.0 uM.

Zinc finger and BTB domain-containing protein 14 (Homo sapiens), sequence (O43829 whole entry, the tested form may be a part): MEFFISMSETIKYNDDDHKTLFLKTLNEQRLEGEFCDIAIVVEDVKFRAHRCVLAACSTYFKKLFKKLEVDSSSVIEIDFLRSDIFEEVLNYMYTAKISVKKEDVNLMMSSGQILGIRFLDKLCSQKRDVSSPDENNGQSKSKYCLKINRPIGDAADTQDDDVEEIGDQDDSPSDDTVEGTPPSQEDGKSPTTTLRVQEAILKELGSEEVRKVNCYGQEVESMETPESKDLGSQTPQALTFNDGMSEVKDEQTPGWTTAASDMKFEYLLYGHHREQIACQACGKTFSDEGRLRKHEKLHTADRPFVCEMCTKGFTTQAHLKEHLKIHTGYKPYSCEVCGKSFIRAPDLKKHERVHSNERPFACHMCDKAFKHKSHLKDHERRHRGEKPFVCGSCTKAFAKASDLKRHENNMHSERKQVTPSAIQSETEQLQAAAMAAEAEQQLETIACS
Transcription regulator protein BACH2 (Homo sapiens), sequence (Q9BYV9 whole entry): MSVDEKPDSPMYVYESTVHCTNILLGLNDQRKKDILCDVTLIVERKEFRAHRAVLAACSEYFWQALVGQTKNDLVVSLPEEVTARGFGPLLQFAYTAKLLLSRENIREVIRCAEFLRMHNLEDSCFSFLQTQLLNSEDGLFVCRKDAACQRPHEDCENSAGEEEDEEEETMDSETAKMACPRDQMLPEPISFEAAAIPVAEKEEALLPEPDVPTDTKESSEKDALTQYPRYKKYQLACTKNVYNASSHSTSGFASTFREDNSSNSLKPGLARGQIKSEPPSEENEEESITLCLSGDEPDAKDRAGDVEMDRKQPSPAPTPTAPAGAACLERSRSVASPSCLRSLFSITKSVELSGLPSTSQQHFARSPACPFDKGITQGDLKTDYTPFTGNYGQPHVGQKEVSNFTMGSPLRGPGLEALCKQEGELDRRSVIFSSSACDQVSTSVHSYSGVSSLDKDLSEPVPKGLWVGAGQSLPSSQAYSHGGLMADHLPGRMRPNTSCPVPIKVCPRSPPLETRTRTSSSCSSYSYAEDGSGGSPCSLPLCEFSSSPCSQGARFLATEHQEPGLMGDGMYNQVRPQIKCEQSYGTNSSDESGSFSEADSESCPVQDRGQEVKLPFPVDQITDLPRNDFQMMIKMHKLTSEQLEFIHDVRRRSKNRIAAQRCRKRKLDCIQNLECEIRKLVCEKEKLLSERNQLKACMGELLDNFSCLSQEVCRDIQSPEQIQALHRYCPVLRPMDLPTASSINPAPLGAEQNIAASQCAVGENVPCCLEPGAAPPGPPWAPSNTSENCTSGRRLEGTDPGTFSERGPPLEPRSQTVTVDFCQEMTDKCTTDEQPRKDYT
5-hydroxytryptamine receptor 3A (Homo sapiens), sequence (P46098 whole entry, the tested form may be a part): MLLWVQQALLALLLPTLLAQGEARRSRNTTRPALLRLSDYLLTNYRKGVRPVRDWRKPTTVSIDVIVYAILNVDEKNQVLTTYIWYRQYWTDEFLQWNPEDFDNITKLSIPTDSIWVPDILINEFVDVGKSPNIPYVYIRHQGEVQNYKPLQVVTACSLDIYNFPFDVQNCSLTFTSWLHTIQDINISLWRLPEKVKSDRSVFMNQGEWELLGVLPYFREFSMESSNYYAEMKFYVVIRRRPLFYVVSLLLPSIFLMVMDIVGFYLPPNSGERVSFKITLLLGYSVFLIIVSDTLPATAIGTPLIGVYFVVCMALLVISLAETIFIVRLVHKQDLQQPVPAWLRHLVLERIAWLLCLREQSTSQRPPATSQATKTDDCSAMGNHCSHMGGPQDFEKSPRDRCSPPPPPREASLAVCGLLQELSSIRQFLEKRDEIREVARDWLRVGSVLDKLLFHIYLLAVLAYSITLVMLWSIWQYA

For `C[C@@H]1CN(c2ncc(Cl)c(Nc3ccc4c(c3)n(CCC(C)(C)O)c(=O)n4C)n2)C[C@H](C)C1(F)F`, the inhibition in [1] is -5.81%; in test [3], 18.1%. Besides, the LogFC in test [2] was 0.0827; in [4], 0.0235; in test [6], -0.0255; in test [9] it was -0.0895; in test [13], 0.0283; in test [14] it was -0.0152. For the same compound, the Ki in test [5] is 6170 nM; in test [12] (read-out: Ki) it was 872 nM; in test [12] (read-out: pKi (converted)) it was 851 nM. In addition, the Tm in test [7] was 45 °C; in [8], 46 °C; in [10], 53 °C; in test [11], 44 °C.
